± gives the standard deviation of the averaged measurements.
Legend:
Assay in all cases: relative viability vs DMSO control (72 h) (fraction); higher = more viable cells
[1] = system: A204
Summary of the method: (§1)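 A 5 µM positive control and 0.1% DMSO vehicle ran alongside sarcoma cell lines seeded in 384-well plates to reach 80–90% confluence. Serially diluted compound, 2.5 µl from source plates of 10 mM to 0.0002 mM, was added after 24 h, and the plates were held 72 h at 37 °C, 5% CO2. Relative viability was worked out from ATPLite readings as percent growth averaged over up to triplicate wells. The values were rescaled so that 1 is full and 0 is none.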

[2] = system: G401
Summary of the method: as §1

[3] = system: HS729
Summary of the method: as §1

[4] = system: HT1080
Summary of the method: as §1

[5] = system: KHOS-NP
Summary of the method: as §1

[6] = system: RD-ES
Summary of the method: as §1

[7] = system: SK-ES-1
Summary of the method: as §1

[8] = system: SK-LMS-1
Summary of the method: as §1

[9] = system: SW684
Summary of the method: as §1

[10] = system: SW872
Summary of the method: as §1

[11] = system: SW982
Summary of the method: as §1

[12] = system: VA-ES-BJ
Summary of the method: as §1

CCN(CC)CCNC(=O)c1c(C)[nH]c(/C=C2\C(=O)Nc3ccc(F)cc32)c1C [Sunitinib]
Settings	relative viability
[1], 0.00017 µM	1.06 ± 0.052
[1], 0.00051 µM	1.03 ± 0.073
[1], 0.00152 µM	1.01 ± 0.043
[1], 0.00457 µM	0.96 ± 0.035
[1], 0.01372 µM	0.795 ± 0.026
[1], 0.04115 µM	0.516 ± 0.043
[1], 0.1235 µM	0.425 ± 0.046
[1], 0.3704 µM	0.363 ± 0.031
[1], 1.111 µM	0.318 ± 0.017
[1], 3.333 µM	0.206 ± 0.01
[1], 10 µM	0.00297 ± 0.0012
[2], 0.00017 µM	1.01 ± 0.0098
[2], 0.00051 µM	0.984 ± 0.014
[2], 0.00152 µM	0.982 ± 0.013
[2], 0.00457 µM	0.99 ± 0.017
[2], 0.01372 µM	0.999 ± 0.023
[2], 0.04115 µM	0.996 ± 0.01
[2], 0.1235 µM	0.959 ± 0.0094
[2], 0.3704 µM	0.98 ± 0.068
[2], 1.111 µM	0.892 ± 0.032
[2], 3.333 µM	0.628 ± 0.036
[2], 10 µM	0.00473 ± 0.00025
[3], 0.00017 µM	0.928 ± 0.021
[3], 0.00051 µM	0.877 ± 0.036
[3], 0.00152 µM	0.835 ± 0.021
[3], 0.00457 µM	0.819 ± 0.045
[3], 0.01372 µM	0.799 ± 0.01
[3], 0.04115 µM	0.761 ± 0.061
[3], 0.1235 µM	0.731 ± 0.053
[3], 0.3704 µM	0.68 ± 0.024
[3], 1.111 µM	0.518 ± 0.022
[3], 3.333 µM	0.268 ± 0.012
[3], 10 µM	0.0045 ± 0.00087
[4], 0.00017 µM	1.13 ± 0.048
[4], 0.00051 µM	1.051 ± 0.0096
[4], 0.00152 µM	1.1 ± 0.03
[4], 0.00457 µM	1.06 ± 0.027
[4], 0.01372 µM	1.08 ± 0.025
[4], 0.04115 µM	1.07 ± 0.049
[4], 0.1235 µM	1.11 ± 0.027
[4], 0.3704 µM	1.14 ± 0.035
[4], 1.111 µM	1.06 ± 0.064
[4], 3.333 µM	0.113 ± 0.014
[4], 10 µM	0.00267 ± 0.00021
[5], 0.00017 µM	1.04 ± 0.024
[5], 0.00051 µM	1.06 ± 0.018
[5], 0.00152 µM	1.05 ± 0.014
[5], 0.00457 µM	1.05 ± 0.022
[5], 0.01372 µM	1.06 ± 0.017
[5], 0.04115 µM	1.047 ± 0.0075
[5], 0.1235 µM	1.069 ± 0.0048
[5], 0.3704 µM	1.065 ± 0.0084
[5], 1.111 µM	0.973 ± 0.05
[5], 3.333 µM	0.381 ± 0.062
[5], 10 µM	0.0257 ± 0.0036
[6], 0.00017 µM	0.955 ± 0.057
[6], 0.00051 µM	0.952 ± 0.049
[6], 0.00152 µM	0.968 ± 0.022
[6], 0.00457 µM	0.97 ± 0.048
[6], 0.01372 µM	0.964 ± 0.049
[6], 0.04115 µM	0.958 ± 0.041
[6], 0.1235 µM	0.895 ± 0.017
[6], 0.3704 µM	0.752 ± 0.01
[6], 1.111 µM	0.276 ± 0.013
[6], 3.333 µM	0.0097 ± 0.00087
[6], 10 µM	0.00923 ± 0.00055
[7], 0.00017 µM	0.997 ± 0.022
[7], 0.00051 µM	0.996 ± 0.05
[7], 0.00152 µM	1.08 ± 0.037
[7], 0.00457 µM	1.04 ± 0.024
[7], 0.01372 µM	1.02 ± 0.021
[7], 0.04115 µM	0.97 ± 0.014
[7], 0.1235 µM	0.931 ± 0.019
[7], 0.3704 µM	0.578 ± 0.03
[7], 1.111 µM	0.215 ± 0.0073
[7], 3.333 µM	0.018 ± 0.0024
[7], 10 µM	0.0034 ± 0.00035
[8], 0.00017 µM	1.11 ± 0.036
[8], 0.00051 µM	1.13 ± 0.04
[8], 0.00152 µM	1.08 ± 0.041
[8], 0.00457 µM	1.07 ± 0.038
[8], 0.01372 µM	1.12 ± 0.026
[8], 0.04115 µM	1.1 ± 0.016
[8], 0.1235 µM	1.09 ± 0.015
[8], 0.3704 µM	1.02 ± 0.011
[8], 1.111 µM	0.884 ± 0.041
[8], 3.333 µM	0.706 ± 0.025
[8], 10 µM	0.0084 ± 0.00053
[9], 0.00017 µM	1.17 ± 0.031
[9], 0.00051 µM	1.16 ± 0.023
[9], 0.00152 µM	1.18 ± 0.019
[9], 0.00457 µM	1.15 ± 0.035
[9], 0.01372 µM	1.144 ± 0.0071
[9], 0.04115 µM	1.17 ± 0.063
[9], 0.1235 µM	1.181 ± 0.0061
[9], 0.3704 µM	1.07 ± 0.04
[9], 1.111 µM	0.871 ± 0.019
[9], 3.333 µM	0.609 ± 0.029
[9], 10 µM	0.001 ± 0.0098
[10], 0.00017 µM	1.04 ± 0.051
[10], 0.00051 µM	1.05 ± 0.048
[10], 0.00152 µM	1.03 ± 0.029
[10], 0.00457 µM	1.03 ± 0.04
[10], 0.01372 µM	1.04 ± 0.097
[10], 0.04115 µM	1.02 ± 0.1
[10], 0.1235 µM	0.993 ± 0.11
[10], 0.3704 µM	0.81 ± 0.038
[10], 1.111 µM	0.587 ± 0.033
[10], 3.333 µM	0.416 ± 0.035
[10], 10 µM	-0.00493 ± 0.0014
[11], 0.00017 µM	1.06 ± 0.054
[11], 0.00051 µM	1.07 ± 0.047
[11], 0.00152 µM	1.07 ± 0.062
[11], 0.00457 µM	1.05 ± 0.027
[11], 0.01372 µM	1.05 ± 0.063
[11], 0.04115 µM	1.07 ± 0.021
[11], 0.1235 µM	1.02 ± 0.047
[11], 0.3704 µM	0.716 ± 0.0084
[11], 1.111 µM	0.413 ± 0.0048
[11], 3.333 µM	0.0113 ± 0.00078
[11], 10 µM	0.00423 ± 0.00012
[12], 0.00017 µM	1.04 ± 0.021
[12], 0.00051 µM	1.03 ± 0.011
[12], 0.00152 µM	1.04 ± 0.026
[12], 0.00457 µM	1.04 ± 0.018
[12], 0.01372 µM	1.05 ± 0.023
[12], 0.04115 µM	1.045 ± 0.0085
[12], 0.1235 µM	1.014 ± 0.01
[12], 0.3704 µM	0.962 ± 0.039
[12], 1.111 µM	0.745 ± 0.021
[12], 3.333 µM	0.597 ± 0.045
[12], 10 µM	-0.00367 ± 0.0023
